Measured values: patent publication EP1247803A2, “Indolinone compounds suitable for modulation of protein kinases” (Sugen, Inc., priority 1996, dated 1998)

How the values were obtained:
[1] = system: MET; assay: MET biochemical kinase assay; parameters: species or system human; concentration or dose not given beside the values
Summary of the method: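 Capture ELISA: anti-rabbit Fc coat, rabbit anti-MET cytoplasmic domain pAb, lysate MET captured, washed. Compound + kinase buffer (ATP, divalent metals). Readout anti-pTyr-HRP/TMB, colorimetric.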

[2] = molecular target: T1, FLK-1 receptor (Mus musculus, UniProt P35918); assay: FLK-1 ELISA (kinase activity of the FLK-1 receptor in FLK-1/NIH3T3 cells, VEGF stimulated); format: cell-based
T1 construct: expressed in transfected cells; host or cells: NIH3T3 C7#3
Description: An enzyme linked immunosorbent assay (ELISA) was conducted to measure the catalytic activity of the FLK-1 receptor and more specifically, the inhibition or activation of indolinone compounds on the catalytic activity of the FLK-1 receptor. Specifically, the following assay was conducted to measure catalytic activity of the FLK-1 receptor in FLK-1/NIH3T3 cells.
The materials and protocol for the FLK-1 ELISA assay are as described in International Patent Publication No. WO 96/40116, published December 19, 1996 by Tang et al.
Selected compounds were tested in the FLK-1 ELISA assay.
An ELISA assay was conducted to measure the kinase activity of the FLK-1 receptor and more specifically, the inhibition or activation of protein tyrosine kinase activity on the FLK-1 receptor. Specifically, the following assay was conducted to measure kinase activity of the FLK-1 receptor in FLK-1/NIH3T3 cells.
Materials. The following reagents and supplies were used: • a. […] Cappel goat anti-rabbit IgG (catalog no. 55641); • c. PBS (Gibco Catalog No. 450-1300EB); • d. TBSW Buffer (50 mM Tris (pH 7.2), 150 mM NaCl and 0.1% Tween-20); • e. Ethanolamine stock (10% ethanolamine (pH 7.0), stored at 4°C); • f. HNTG buffer (20mM HEPES buffer (pH 7.5), 150mM NaCl, 0.2% Triton X-100, and 10% glycerol); • g. EDTA (0.5 M (pH 7.0) as a 100X stock); • h. Sodium ortho vanadate (0.5 M as a 100X stock); • i. Sodium pyro phosphate (0.2M as a 100X stock); • j. NUNC 96 well V bottom polypropylene plates (Applied Scientific Catalog No. AS-72092); • k. NIH3T3 C7#3 Cells (FLK-1 expressing cells); • l. DMEM with 1X high glucose L Glutamine (catalog No. 11965-050); • m. FBS, Gibco (catalog no. 16000-028); • n. L-glutamine, Gibco (catalog no. 25030-016); • o. VEGF, PeproTech, Inc. (catalog no. 100-20)(kept as 1 µg/100 µl stock in Milli-Q dH2O and stored at -20°C; • p. Affinity purified anti-FLK-1 antiserum which can be obtained or purified as follows: • 1. Prepare a Tresyl-Activated Agarose/Flk-1-D column by incubating 10 ml of Tresyl-Activated Agarose with 20 mg of purified GST-Flk-1-D fusion protein in 100mM sodium bicarbonate (pH 9.6) buffer overnight at 4 °C. • 2. Wash the column once with PBS. • 3. Block the excess sites on the column with 2 M glycine for 2 hours at 4°C. • 4. Wash the column with PBS. • 5. Incubate the column with Rabbit anti-Flk-1D production bleed for 2 hours at 4 °C. • 6. Wash the column with PBS. • 7. Elute antiserum with 100 mM Citric Acid, pH3.0 and neutralize the eluate immediately with 2 M Tris, pH 9.0. • 8. Dialyize the eluate against PBS overnight at 4 °C with 3 changes of buffer (sample to buffer ratio is 1:100). • 9. Adjust the dialyized antiserum to 5% glycerol and store at -80 °C in small aliquotes. • q.
Protocol. The following protocol was used for conducting the assay: • 1. Coat Corning 96-well elisa plates with 1.0µg per well Cappel Anti-rabbit IgG antibody in 0.1M Na2CO3 pH 9.6. Bring final volume to 150 µl per well. Coat plates overnight at 4°C. Plates can be kept up to two weeks when stored at 4°C. • 2. Grow cells in Growth media(DMEM, supplemental with 2.0mM L-Glutamine, 10% FBS) in suitable culture dishes until confluent at 37°C, 5% CO2. • 3. Harvest cells by trypsinization and seed in Corning 25850 polystyrene 96-well roundbottom cell plates, 25.000 cells/well in 200µl of growth media. • 4. Grow cells at least one day at 37°C, 5% CO2. • 5. Wash cells with D-PBS 1X. • 6. Add 200µl/well of starvation media (DMEM, 2.0mM 1-Glutamine, 0.1% FBS). Incubate overnight at 37°C, 5% CO2. • 7. Dilute Compounds/Extracts 1:20 in polypropylene 96 well plates using starvation media. Dilute dimethylsulfoxide 1:20 for use in control wells. • 8. Remove starvation media from 96 well cell culture plates and add 162 µl of fresh starvation media to each well. • 9. Add 18µl of 1:20 diluted Compound/Extract dilution (from step 7) to each well plus the 1:20 dimethylsulfoxide dilution to the control wells (+/- VEGF), for a final dilution of 1:200 after cell stimulation. […]

[3] = molecular target: PDGF-R (Homo sapiens, UniProt P09619); assay: PDGF-R ELISA; format: cell-based
From the text: A PDGF-R ELISA is described in International Patent Publication No. WO 96/40116, published December 19, 1996 by Tang et al.

T1 sequence (P35918 20-1345): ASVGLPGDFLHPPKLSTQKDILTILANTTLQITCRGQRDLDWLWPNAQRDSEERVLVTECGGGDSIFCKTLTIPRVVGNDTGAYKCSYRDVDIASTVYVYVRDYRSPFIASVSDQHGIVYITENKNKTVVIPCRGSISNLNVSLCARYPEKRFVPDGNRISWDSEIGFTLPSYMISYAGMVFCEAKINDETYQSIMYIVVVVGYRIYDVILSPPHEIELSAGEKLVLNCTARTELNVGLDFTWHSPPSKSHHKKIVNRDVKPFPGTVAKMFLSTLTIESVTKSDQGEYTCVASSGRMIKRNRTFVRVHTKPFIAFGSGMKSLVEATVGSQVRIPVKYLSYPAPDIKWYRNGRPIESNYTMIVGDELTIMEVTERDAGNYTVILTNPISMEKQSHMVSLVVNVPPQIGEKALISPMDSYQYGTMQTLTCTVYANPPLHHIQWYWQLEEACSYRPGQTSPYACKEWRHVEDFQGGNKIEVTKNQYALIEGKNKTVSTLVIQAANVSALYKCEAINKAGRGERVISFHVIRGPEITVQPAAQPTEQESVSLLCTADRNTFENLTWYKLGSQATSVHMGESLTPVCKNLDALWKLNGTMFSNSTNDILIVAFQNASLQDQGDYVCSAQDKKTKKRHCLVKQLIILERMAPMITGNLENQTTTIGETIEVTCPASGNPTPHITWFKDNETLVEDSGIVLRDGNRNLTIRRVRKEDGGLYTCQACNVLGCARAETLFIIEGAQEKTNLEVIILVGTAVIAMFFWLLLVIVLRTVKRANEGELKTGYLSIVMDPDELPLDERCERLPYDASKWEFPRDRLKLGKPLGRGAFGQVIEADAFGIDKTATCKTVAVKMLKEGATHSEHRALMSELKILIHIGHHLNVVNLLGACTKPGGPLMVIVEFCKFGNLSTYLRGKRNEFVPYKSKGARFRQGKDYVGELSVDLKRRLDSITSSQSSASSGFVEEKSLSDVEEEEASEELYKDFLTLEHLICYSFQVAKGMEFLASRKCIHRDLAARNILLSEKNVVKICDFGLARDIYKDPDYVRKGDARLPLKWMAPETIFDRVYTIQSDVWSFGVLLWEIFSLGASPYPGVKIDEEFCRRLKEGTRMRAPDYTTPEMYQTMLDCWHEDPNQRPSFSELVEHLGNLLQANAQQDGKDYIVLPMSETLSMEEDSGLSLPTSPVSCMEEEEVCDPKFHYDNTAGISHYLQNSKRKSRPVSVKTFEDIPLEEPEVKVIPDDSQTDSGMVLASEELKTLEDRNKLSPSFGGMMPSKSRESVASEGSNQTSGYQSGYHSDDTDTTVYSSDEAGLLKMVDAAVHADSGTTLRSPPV
PDGF-R, sequence (P09619 33-1106, species assumed): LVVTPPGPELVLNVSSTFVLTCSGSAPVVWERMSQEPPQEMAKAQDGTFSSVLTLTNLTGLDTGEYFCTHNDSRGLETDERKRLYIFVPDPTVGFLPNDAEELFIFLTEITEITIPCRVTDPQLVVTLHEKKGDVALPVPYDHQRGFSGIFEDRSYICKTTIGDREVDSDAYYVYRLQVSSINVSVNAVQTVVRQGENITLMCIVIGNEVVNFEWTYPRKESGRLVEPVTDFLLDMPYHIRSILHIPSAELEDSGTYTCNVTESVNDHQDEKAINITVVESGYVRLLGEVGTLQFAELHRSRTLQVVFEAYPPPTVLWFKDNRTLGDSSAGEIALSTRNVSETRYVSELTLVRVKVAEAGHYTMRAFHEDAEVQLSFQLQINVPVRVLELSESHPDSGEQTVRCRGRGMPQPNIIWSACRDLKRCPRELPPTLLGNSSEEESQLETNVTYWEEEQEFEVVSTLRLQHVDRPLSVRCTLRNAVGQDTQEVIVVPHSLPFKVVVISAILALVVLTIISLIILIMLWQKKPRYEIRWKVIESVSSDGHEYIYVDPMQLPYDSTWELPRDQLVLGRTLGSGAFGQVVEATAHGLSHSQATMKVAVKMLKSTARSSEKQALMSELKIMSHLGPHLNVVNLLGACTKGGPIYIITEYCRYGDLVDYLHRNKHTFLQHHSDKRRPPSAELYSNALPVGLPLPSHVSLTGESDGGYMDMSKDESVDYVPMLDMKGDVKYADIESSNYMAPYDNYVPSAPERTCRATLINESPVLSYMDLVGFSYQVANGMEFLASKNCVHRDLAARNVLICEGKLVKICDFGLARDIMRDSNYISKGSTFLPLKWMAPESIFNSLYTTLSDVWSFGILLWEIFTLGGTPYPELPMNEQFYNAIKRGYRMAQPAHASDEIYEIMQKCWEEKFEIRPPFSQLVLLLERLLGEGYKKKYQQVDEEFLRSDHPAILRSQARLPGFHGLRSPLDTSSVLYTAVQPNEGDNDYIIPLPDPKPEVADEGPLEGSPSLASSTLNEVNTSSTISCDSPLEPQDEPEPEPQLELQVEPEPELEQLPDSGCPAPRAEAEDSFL

| Structure (SMILES) | Met Kinase % Inhibition [1] [%] | Fik Kinase %Inhibition [2] [%] | PDGF Kinase %Inhibition [3] [%] |
| --- | --- | --- | --- |
| CNS(=O)(=O)c1ccc2c(c1)C(=Cc1ccc([N+](=O)[O-])o1)C(=O)N2 [10718/D11] | 11.3 | 13.3 | – |
| CC(C)(C)c1cc(C=C2C(=O)Nc3ccc(CCCl)cc32)cc(Cl)c1OCc1ccccc1 [10732/G10] | 45.7 | 14.0 | 20.4 |
| CC(C)(C)c1cc(C=C2C(=O)Nc3ccc(I)cc32)cc(C(C)(C)C)c1OCc1ccccc1 [10733/B05] | 61.3 | -1.1 | 27.3 |
| Cc1c(Br)ccc2c1C(=Cc1cc(C(C)(C)C)c(OCc3ccccc3)c(C(C)(C)C)c1)C(=O)N2 [10733/C05] | 23.2 | 11.5 | 11.1 |
| COc1c(Br)cc(C=C2C(=O)Nc3ccc(S(=O)(=O)Nc4ccc(C(F)(F)F)cc4)cc32)cc1C(C)(C)C [10732/E07] | 15.2 | 21.3 | 42.2 |
| CC(C)(C)c1cc(C=C2C(=O)Nc3ccc(S(=O)(=O)Nc4ccc(C(F)(F)F)cc4)cc32)cc(Br)c1OCc1ccccc1 [10732/E08] | 29.4 | 13.6 | 32.6 |
| COc1cc(Br)c(O)c(C=C2C(=O)Nc3ccc(S(=O)(=O)Nc4ccc(C(F)(F)F)cc4)cc32)c1 [10718/E03] | 95.3 | 10.0 | – |
| COc1c(Br)cc(C=C2C(=O)Nc3ccc(CCCl)cc32)cc1C(C)(C)C [10732/G07] | 23.9 | 4.6 | 21.4 |
| COc1c(O)ccc(C=C2C(=O)Nc3ccc(I)cc32)c1[N+](=O)[O-] [10733/B11] | 36.6 | 22.5 | 23.7 |
| COc1cc(Br)cc(C=C2C(=O)Nc3c(Br)cc(Br)cc32)c1O [10733/A08] | 27.2 | -17.1 | -10.1 |
| COc1cc(Br)cc(C=C2C(=O)Nc3ccc(I)cc32)c1O [10733/B08] | 65.5 | -16.0 | -15.7 |
| CNS(=O)(=O)c1ccc2c(c1)C(=Cc1cc([N+](=O)[O-])c(OC)c(C(C)(C)C)c1)C(=O)N2 [10733/D03] | 32.8 | 33.2 | 40.7 |
| O=C1Nc2c(Br)cc(Br)cc2C1=Cc1cc(Br)ccc1O [10733/A09] | 22.1 | -11.9 | -7.6 |
| Cc1c(Br)ccc2c1C(=Cc1cc(Br)ccc1O)C(=O)N2 [10733/C09] | 16.3 | -18.0 | 91.9 |
| CC(C)(C)c1cc(C=C2C(=O)Nc3ccc(S(=O)(=O)N4CCOCC4)cc32)cc(Br)c1OCc1ccccc1 [10732/F08] | 76.6 | 12.6 | 14.9 |
| CNS(=O)(=O)c1ccc2c(c1)C(=Cc1cc(C(C)(C)C)c(OC)c(C(C)(C)C)c1)C(=O)N2 [10733/D04] | 37.7 | 15.5 | 26.5 |

| Structure (SMILES) | Met Kinase % Inhibition [1] [%] | Fik Kinase %Inhibition [2] [%] | PDGF Kinase %Inhibition [3] [%] |
| --- | --- | --- | --- |
| CC(C)(C)c1cc(C=C2C(=O)Nc3c(Br)cc(Br)cc32)cc(C(C)(C)C)c1OCc1ccccc1 [10733/A05] | 18.2 | -23.3 | -4.0 |
| CC(C)(C)c1cc(C=C2C(=O)Nc3ccc(S(=O)(=O)Nc4ccc(C(F)(F)F)cc4)cc32)ccc1OCc1ccccc1 [10732/E06] | -2.1 | 2.8 | 16.9 |
| CC(C)c1cc(C=C2C(=O)Nc3ccc(CCCl)cc32)cc(C(C)C)c1Oc1ccccc1 [10732/G04] | 24.9 | 12.6 | 25.0 |
| COc1c(C(C)(C)C)cc(C=C2C(=O)Nc3c(Br)cc(Br)cc32)cc1C(C)(C)C [10733/A04] | 24.0 | -11.2 | -14.1 |
| CNS(=O)(=O)c1ccc2c(c1)C(=Cc1cc(Br)ccc1O)C(=O)N2 [10733/D09] | 38.7 | 9.8 | 33.8 |
| CC(C)(C)c1cc(C=C2C(=O)Nc3ccc(CCCl)cc32)cc(Br)c1OCc1ccccc1 [10732/G08] | 44.7 | 10.0 | 37.6 |
| Cc1cc(C=C2C(=O)Nc3ccc(I)cc32)cc(C)c1OCc1ccccc1 [10733/B07] | 73.5 | 1.2 | 4.2 |
| CNS(=O)(=O)c1ccc2c(c1)C(=Cc1ccco1)C(=O)N2 [10718/D10] | 55.3 | 15.0 | – |
| COc1c(Br)cc(C=C2C(=O)Nc3ccc(S(=O)(=O)N4CCOCC4)cc32)cc1C(C)(C)C [10732/F07] | 65.5 | 31.0 | 38.6 |
| O=C1Nc2c(Br)cc(Br)cc2C1=Cc1cc([N+](=O)[O-])ccc1O [10733/A10] | 21.1 | -9.3 | -13.3 |
| COc1c(C(C)C)cc(C=C2C(=O)Nc3ccc(S(=O)(=O)Nc4ccc(C(F)(F)F)cc4)cc32)cc1C(C)C [10732/E03] | 3.9 | 16.7 | 48.7 |
| CNS(=O)(=O)c1ccc2c(c1)C(=Cc1c(C)[nH]c(C(=O)OC)c1C(=O)OC)C(=O)N2 [10718/D07] | 26.1 | 7.8 | – |
| COc1cccc(O)c1C=C1C(=O)Nc2c(Br)cc(Br)cc21 [10717/A10] | 71.6 | -3.3 | – |
| CCOC(=O)c1c(C)[nH]c(C=C2C(=O)Nc3ccc(S(=O)(=O)Nc4ccc(C(F)(F)F)cc4)cc32)c1C [10718/E02] | 46.3 | 19.7 | – |
| CNS(=O)(=O)c1ccc2c(c1)C(=Cc1ccc(O)c(C)c1O)C(=O)N2 [10718/D09] | 9.9 | -9.1 | – |
| CNS(=O)(=O)c1ccc2c(c1)C(=Cc1ccc(Cl)c([N+](=O)[O-])c1)C(=O)N2 [10718/D08] | 2.3 | 3.9 | – |
